Measured values from patent US11071300B2, “Pesticidally active pyrazole derivatives” (SYNGENTA PARTICIPATIONS AG, priority 2017, dated 2021).
Where two headings read alike, the source gives them in different places.

Key:
Format in all cases: in vivo
Diabrotica Balteata = assay: Diabrotica balteata (corn root worm) maize sprout test; conditions: 96 h, read-out: control (mortality and growth inhibition)
Procedure: Diabrotica Balteata, (Corn Root Worm)
Maize sprouts, placed on an agar layer in 24-well microtiter plates were treated with aqueous test solutions prepared from 10′000 ppm DMSO stock solutions by spraying. After drying, the plates were infested with L2 larvae (6 to 10 per well). The samples were assessed for mortality and growth inhibition in comparison to untreated samples 4 days after infestation.

Euschistus heros = Euschistus heros (neotropical brown stink bug) soybean leaf test; conditions: 120 h, read-out: control (mortality and growth inhibition)
Procedure: Euschistus heros (Neotropical Brown Stink Bug):
Soybean leaves on agar in 24-well microtiter plates were sprayed with aqueous test solutions prepared from 10′000 ppm DMSO stock solutions. After drying the leaves were infested with N2 nymphs. The samples were assessed for mortality and growth inhibition in comparison to untreated samples 5 days after infestation.

Spodoptera littoralis = Spodoptera littoralis (Egyptian cotton leaf worm) leaf disc test; conditions: foliar, 72 h, application rate 200 ppm, cotton leaf discs sprayed, L1 larvae, 3 days after infestation, read-out: control (at least one of mortality, anti-feedant effect, growth inhibition)
Outline: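 Cotton leaf discs on agar were sprayed with aqueous dilutions of 10′000 ppm DMSO stocks, dried and infested with five L1 larvae. Mortality, anti-feedant effect and growth inhibition were scored against untreated samples 3 days after infestation. Control = any of these higher than untreated.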

Plutella xylostella = Plutella xylostella (diamond back moth) artificial diet test; conditions: 120 h, read-out: control (mortality and growth inhibition)
Procedure: Plutella xylostella (Diamond Back Moth):
24-well microtiter plates with artificial diet were treated with aqueous test solutions prepared from 10′000 ppm DMSO stock solutions by pipetting. After drying, the plates were infested with L2 larvae (10 to 15 per well). The samples were assessed for mortality and growth inhibition in comparison to untreated samples 5 days after infestation.

Tetranychus urticae = Tetranychus urticae (two-spotted spider mite) leaf disc test; conditions: foliar, 192 h, read-out: control (mortality on mixed population, mobile stages)
Procedure: Tetranychus urticae (Two-Spotted Spider Mite):
Bean leaf discs on agar in 24-well microtiter plates were sprayed with aqueous test solutions prepared from 10′000 ppm DMSO stock solutions. After drying the leaf discs were infested with a mite population of mixed ages. The samples were assessed for mortality on mixed population (mobile stages) 8 days after infestation.

Thrips tabaci = Thrips tabaci (onion thrips) leaf disc test; conditions: foliar, 144 h, read-out: control (mortality)
Procedure: Thrips tabaci (Onion Thrips):
Sunflower leaf discs were placed on agar in 24-well microtiter plates and sprayed with aqueous test solutions prepared from 10′000 ppm DMSO stock solutions. After drying the leaf discs were infested with a thrips population of mixed ages. The samples were assessed for mortality 6 days after infestation.

Myzus persicae = Myzus persicae (green peach aphid) leaf disc test; conditions: foliar, 144 h, read-out: control (mortality)
Procedure: Myzus persicae (Green Peach Aphid):
Sunflower leaf discs were placed on agar in a 24-well microtiter plate and sprayed with test solutions at an application rate of 200 ppm. After drying, the leaf discs were infested with an aphid population of mixed ages. After an incubation period of 6 DAT, samples were checked for mortality.

[1] = application rate 200 ppm, maize sprouts sprayed, L2 larvae, 4 days after infestation
[2] = application rate 200 ppm, soybean leaves sprayed, N2 nymphs, 5 days after infestation
[3] = application rate 200 ppm, artificial diet, L2 larvae, 5 days after infestation
[4] = application rate 200 ppm, bean leaf discs sprayed, 8 days after infestation
[5] = application rate 200 ppm, sunflower leaf discs sprayed, mixed ages, 6 days after infestation
[6] = application rate 200 ppm, sunflower leaf discs sprayed, mixed ages, 6 DAT

Cn1nc(OS(=O)(=O)C(F)(C(F)(F)F)C(F)(F)F)c(C(F)(F)F)c1-c1cc(-c2ccc(Cl)c(C(=O)NC3(C#N)CC3)c2)on1 [Compound 36, [5-[5-[4-chloro-3-[(1-cyanocyclopropyl)carbamoyl]phenyl]isoxazol-3-yl]-1-methyl-4-(trifluoromethyl)pyrazol-3-yl] 1,1,1,2,3,3,3-heptafluoropropane-2-sulfonate]
≥ 80%: mortality at 200 ppm (Diabrotica Balteata; [1]) | mortality at 200 ppm (Euschistus heros; [2]) | percent control (mortality, anti-feedant effect or growth inhibition) at 200 ppm (Spodoptera littoralis) | mortality at 200 ppm (Plutella xylostella; [3]) | mortality at 200 ppm (Tetranychus urticae; [4]) | mortality at 200 ppm (Thrips tabaci; [5]) | mortality at 200 ppm (Myzus persicae; [6])

CN(C(=O)c1cc(-c2cc(-c3c(C(F)(F)F)c(OS(=O)(=O)C(F)(C(F)(F)F)C(F)(F)F)nn3C)no2)ccc1Cl)C1(C#N)CC1 [Compound 37, [5-[5-[4-chloro-3-[(1-cyanocyclopropyl)-methyl-carbamoyl]phenyl]isoxazol-3-yl]-1-methyl-4-(trifluoromethyl)pyrazol-3-yl] 1,1,1,2,3,3,3-heptafluoropropane-2-sulfonate]
≥ 80%: mortality at 200 ppm (Diabrotica Balteata; [1]) | mortality at 200 ppm (Euschistus heros; [2]) | percent control (mortality, anti-feedant effect or growth inhibition) at 200 ppm (Spodoptera littoralis) | mortality at 200 ppm (Plutella xylostella; [3]) | mortality at 200 ppm (Tetranychus urticae; [4]) | mortality at 200 ppm (Thrips tabaci; [5]) | mortality at 200 ppm (Myzus persicae; [6])

CCN(C(=O)c1cc(-c2cnn(-c3c(C(F)(F)F)c(OS(=O)(=O)C(F)(C(F)(F)F)C(F)(F)F)nn3C)c2)ccc1Cl)C1(C#N)CC1 [Compound 45, [5-[4-[4-chloro-3-[(1-cyanocyclopropyl)-ethyl-carbamoyl]phenyl]pyrazol-1-yl]-1-methyl-4-(trifluoromethyl)pyrazol-3-yl] 1,1,1,2,3,3,3-heptafluoropropane-2-sulfonate]
≥ 80%: mortality at 200 ppm (Diabrotica Balteata; [1]) | mortality at 200 ppm (Euschistus heros; [2]) | percent control (mortality, anti-feedant effect or growth inhibition) at 200 ppm (Spodoptera littoralis) | mortality at 200 ppm (Plutella xylostella; [3]) | mortality at 200 ppm (Tetranychus urticae; [4]) | mortality at 200 ppm (Thrips tabaci; [5]) | mortality at 200 ppm (Myzus persicae; [6])

CC(=O)N(C(=O)c1cc(-c2cnn(-c3c(C(F)(F)F)c(OS(=O)(=O)C(F)(C(F)(F)F)C(F)(F)F)nn3C)c2)ccc1Cl)C1(C#N)CC1 [Compound 46, [5-[4-[3-[acetyl-(1-cyanocyclopropyl)carbamoyl]-4-chloro-phenyl]pyrazol-1-yl]-1-methyl-4-(trifluoromethyl)pyrazol-3-yl] 1,1,1,2,3,3,3-heptafluoropropane-2-sulfonate]
≥ 80%: mortality at 200 ppm (Diabrotica Balteata; [1]) | mortality at 200 ppm (Euschistus heros; [2]) | percent control (mortality, anti-feedant effect or growth inhibition) at 200 ppm (Spodoptera littoralis) | mortality at 200 ppm (Plutella xylostella; [3]) | mortality at 200 ppm (Tetranychus urticae; [4]) | mortality at 200 ppm (Thrips tabaci; [5]) | mortality at 200 ppm (Myzus persicae; [6])

COCN(C(=O)c1cc(-c2cnn(-c3c(C(F)(F)F)c(OS(=O)(=O)C(F)(C(F)(F)F)C(F)(F)F)nn3C)c2)ccc1Cl)C1(C#N)CC1 [Compound 48, [5-[4-[4-chloro-3-[(1-cyanocyclopropyl)-(methoxymethyl)carbamoyl]phenyl]pyrazol-1-yl]-1-methyl-4-(trifluoromethyl)pyrazol-3-yl] 1,1,1,2,3,3,3-heptafluoropropane-2-sulfonate]
≥ 80%: mortality at 200 ppm (Diabrotica Balteata; [1]) | mortality at 200 ppm (Euschistus heros; [2]) | percent control (mortality, anti-feedant effect or growth inhibition) at 200 ppm (Spodoptera littoralis) | mortality at 200 ppm (Plutella xylostella; [3]) | mortality at 200 ppm (Tetranychus urticae; [4]) | mortality at 200 ppm (Thrips tabaci; [5]) | mortality at 200 ppm (Myzus persicae; [6])

Cn1nc(OS(=O)(=O)C(F)(C(F)(F)F)C(F)(F)F)c(C(F)(F)F)c1-n1cc(-c2ccc(Cl)c(C(=O)N(CC#N)C3(C#N)CC3)c2)cn1 [Compound 49, [5-[4-[4-chloro-3-[(1-cyanocyclopropyl)-(cyanomethyl)carbamoyl]phenyl]pyrazol-1-yl]-1-methyl-4-(trifluoromethyl)pyrazol-3-yl] 1,1,1,2,3,3,3-heptafluoropropane-2-sulfonate]
≥ 80%: mortality at 200 ppm (Diabrotica Balteata; [1]) | mortality at 200 ppm (Euschistus heros; [2]) | percent control (mortality, anti-feedant effect or growth inhibition) at 200 ppm (Spodoptera littoralis) | mortality at 200 ppm (Plutella xylostella; [3]) | mortality at 200 ppm (Tetranychus urticae; [4]) | mortality at 200 ppm (Thrips tabaci; [5]) | mortality at 200 ppm (Myzus persicae; [6])

C#CCN(C(=O)c1cc(-c2cnn(-c3c(C(F)(F)F)c(OS(=O)(=O)C(F)(C(F)(F)F)C(F)(F)F)nn3C)c2)ccc1Cl)C1(C#N)CC1 [Compound 50, [5-[4-[4-chloro-3-[(1-cyanocyclopropyl)-prop-2-ynyl-carbamoyl]phenyl]pyrazol-1-yl]-1-methyl-4-(trifluoromethyl)pyrazol-3-yl] 1,1,1,2,3,3,3-heptafluoropropane-2-sulfonate]
≥ 80%: mortality at 200 ppm (Diabrotica Balteata; [1]) | mortality at 200 ppm (Euschistus heros; [2]) | percent control (mortality, anti-feedant effect or growth inhibition) at 200 ppm (Spodoptera littoralis) | mortality at 200 ppm (Plutella xylostella; [3]) | mortality at 200 ppm (Tetranychus urticae; [4]) | mortality at 200 ppm (Thrips tabaci; [5]) | mortality at 200 ppm (Myzus persicae; [6])

CCOC(=O)N(C(=O)c1cc(-c2cnn(-c3c(C(F)(F)F)c(OS(=O)(=O)C(F)(C(F)(F)F)C(F)(F)F)nn3C)c2)ccc1Cl)C1(C#N)CC1 [Compound 51, [5-[4-[4-chloro-3-[(1-cyanocyclopropyl)-ethoxycarbonyl-carbamoyl]phenyl]pyrazol-1-yl]-1-methyl-4-(trifluoromethyl)pyrazol-3-yl] 1,1,1,2,3,3,3-heptafluoropropane-2-sulfonate]
≥ 80%: mortality at 200 ppm (Diabrotica Balteata) | mortality at 200 ppm (Euschistus heros) | percent control (mortality, anti-feedant effect or growth inhibition) at 200 ppm (Spodoptera littoralis) | mortality at 200 ppm (Plutella xylostella) | mortality at 200 ppm (Tetranychus urticae) | mortality at 200 ppm (Thrips tabaci) | mortality at 200 ppm (Myzus persicae)

COC(=O)N(C(=O)c1cc(-c2cnn(-c3c(C(F)(F)F)c(OS(=O)(=O)C(F)(C(F)(F)F)C(F)(F)F)nn3C)c2)ccc1Cl)C1(C#N)CC1 [Compound 52, [5-[4-[4-chloro-3-[(1-cyanocyclopropyl)-methoxycarbonyl-carbamoyl]phenyl]pyrazol-1-yl]-1-methyl-4-(trifluoromethyl)pyrazol-3-yl] 1,1,1,2,3,3,3-heptafluoropropane-2-sulfonate]
≥ 80%: mortality at 200 ppm (Diabrotica Balteata) | mortality at 200 ppm (Euschistus heros) | percent control (mortality, anti-feedant effect or growth inhibition) at 200 ppm (Spodoptera littoralis) | mortality at 200 ppm (Plutella xylostella) | mortality at 200 ppm (Tetranychus urticae) | mortality at 200 ppm (Thrips tabaci) | mortality at 200 ppm (Myzus persicae)

CCC(=O)N(C(=O)c1cc(-c2cnn(-c3c(C(F)(F)F)c(OS(=O)(=O)C(F)(C(F)(F)F)C(F)(F)F)nn3C)c2)ccc1Cl)C1(C#N)CC1 [Compound 54, [5-[4-[4-chloro-3-[(1-cyanocyclopropyl)-propanoyl-carbamoyl]phenyl]pyrazol-1-yl]-1-methyl-4-(trifluoromethyl)pyrazol-3-yl] 1,1,1,2,3,3,3-heptafluoropropane-2-sulfonate]
≥ 80%: mortality at 200 ppm (Diabrotica Balteata; [1]) | mortality at 200 ppm (Euschistus heros; [2]) | percent control (mortality, anti-feedant effect or growth inhibition) at 200 ppm (Spodoptera littoralis) | mortality at 200 ppm (Plutella xylostella; [3]) | mortality at 200 ppm (Tetranychus urticae; [4]) | mortality at 200 ppm (Thrips tabaci; [5]) | mortality at 200 ppm (Myzus persicae; [6])

Cn1nc(OS(=O)(=O)C(F)(C(F)(F)F)C(F)(F)F)c(C(F)(F)F)c1-n1cc(-c2ccc(Cl)c(C(=O)N(C=O)C3(C#N)CC3)c2)cn1 [Compound 57, [5-[4-[4-chloro-3-[(1-cyanocyclopropyl)-formyl-carbamoyl]phenyl]pyrazol-1-yl]-1-methyl-4-(trifluoromethyl)pyrazol-3-yl] 1,1,1,2,3,3,3-heptafluoropropane-2-sulfonate]
≥ 80%: mortality at 200 ppm (Diabrotica Balteata; [1]) | mortality at 200 ppm (Euschistus heros; [2]) | percent control (mortality, anti-feedant effect or growth inhibition) at 200 ppm (Spodoptera littoralis) | mortality at 200 ppm (Plutella xylostella; [3]) | mortality at 200 ppm (Tetranychus urticae; [4]) | mortality at 200 ppm (Thrips tabaci; [5]) | mortality at 200 ppm (Myzus persicae; [6])
